Tested on: H1 human embryonic stem cells
Assay: Compound 34 with growth factor combinations including GDF-8, no activin A (Example 7, Table 6)
Assay type: cell-based
Experimental: Clusters of H1 human embryonic stem cells were grown on reduced growth factor […]™ (Invitrogen; Cat #356231)-coated tissue culture plastic. Cells were passaged using collagenase (Invitrogen; Cat #17104-019) treatment and gentle scraping, washed to remove residual enzyme, and plated with even dispersal at a ratio of 1:1 (surface area) on reduced growth factor […]™-coated 96-well black plates (Packard ViewPlates; PerkinElmer; Cat #6005182) using volumes of 100 μl/well. Cells were allowed to attach as clusters and then recover log phase growth over a 1 to 3 day period, feeding daily with MEF conditioned medium supplemented with 8 ng/ml bFGF (R&D Systems; Cat #233-FB). Plates were maintained at 37° C., 5% CO2 in a humidified box throughout the duration of assay.
Stocks of growth factors purchased from R&D Systems were EGF (Cat #236-EG), FGF4 (Cat #235-F4), PDGF-A (Cat #221-AA), PDGF-D (Cat #1159-SB), PDGF-A/B (Cat #222-AB), VEGF (Cat #293-VE), and GDF-8 (Cat #788-G8). Muscimol was purchased from Tocris (Cat #0289). All growth factors were solubilized in PBS with 0.1% BSA (Sigma; Cat #A7888) and stored frozen at −80° C. Muscimol was solubilized in 100% DMSO (Sigma; Cat #D2650) and stored frozen at −80° C. Cyclic aniline-pyridinotriazine compounds were available as 5 mM stocks in 96-well plate format, solubilized in 100% DMSO and stored at −80° C. Compound 34 was further diluted to an intermediate concentration of 0.2 mM in 50 mM HEPES (Invitrogen; Cat #15630-080), 20% DMSO and stored at 4° C. All growth factors and inhibitors were prepared in a deep well, 96-well polypropylene plate, diluted to 5× intermediate stocks in DMEM:F12 base medium at the beginning of assay and stored at 4° C.
A secondary screening assay was conducted, testing in triplicate and feeding on alternate days over the four-day assay timeframe. Assays were initiated by aspirating culture medium from each well followed by three washes in PBS to remove residual growth factors and serum. […] All remaining growth factors were tested at a final assay concentration of 50 ng/ml (EGF, FGF4, PDGF-A, PDGF-A/B, VEGF) with the exception of GDF-8 tested at 25 ng/ml. Final assay concentration of muscimol was 20 μM. […]
On day 3, wells were aspirated and fed with 80 μl DMEM:F12 base medium supplemented with 2.5% FCS (HyClone) and 3.125 μM Compound 34 plus 20 μl 5× stock of growth factors or small molecules per well to yield a final concentration of 2% FCS and 2.5 μM Compound 34 (omitting Wnt3a) and as denoted on day one for all remaining growth factors or small molecules. Positive control wells (100 μl/well) contained the same base medium supplemented with 2% FCS and 100 ng/ml activin A, omitting Wnt3a. Negative control wells (100 μl/well) contained the same base medium with 2% FCS, omitting both activin A and Wnt3a.
At the conclusion of four-days of culture, assay plates were washed twice with PBS, fixed with 4% paraformaldehyde (Alexis Biochemical; Cat ALX-350-011) at room temperature for 20 minutes, then washed three times with PBS and permeabilized with 0.5% Triton X-100 (Sigma; Cat #T8760-2) for 20 minutes at room temperature. Cells were washed again three times with PBS and blocked with 4% chicken serum (Invitrogen; Cat #16110082) in PBS for 30 minutes at room temperature. Primary antibody (goat anti-human SOX17; R&D Systems; cat #AF1924) was diluted 1:100 in 4% chicken serum and added to each well for one hour at room temperature. Alexa Fluor 488 conjugated secondary antibody (chicken anti-goat IgG; Molecular Probes; Cat #AZ1467) was diluted 1:200 in PBS and added to each sample well after washing three times with PBS. To counterstain nuclei, 4 μg/ml Hoechst 33342 (Invitrogen; Cat #H3570) was added for ten minutes at room temperature. Plates were washed once with PBS and left in 100 μl/well PBS for imaging. […]

[1] = no AA (with Wnt3a), EGF + FGF4 + PDGF-A + VEGF + PDGF-D + Muscimol + GDF8
[2] = no AA (with Wnt3a), GDF8 + PDGF-D
[3] = no AA (with Wnt3a), GDF8 + PDGF-D + VEGF
[4] = no AA (with Wnt3a), GDF8 + PDGF-D + VEGF + Muscimol
[5] = no AA (with Wnt3a), GDF8 + VEGF + Muscimol
[6] = no AA (with Wnt3a), PDGF-D + Muscimol
[7] = no AA (with Wnt3a), PDGF-D + Muscimol + VEGF
[8] = no AA (with Wnt3a), PDGF-D + VEGF
[9] = no AA (with Wnt3a), VEGF + Muscimol
[10] = no AA, no Wnt3a, EGF + FGF4 + PDGF-A + VEGF + PDGF-D + Muscimol + GDF8

## O=C1CCN2CCN(CC2)Cc2cc(Cl)cc(c2)Nc2ncnc(n2)-c2cncc(c2)CCCN1 [Compound 34, 5-Chloro-1,8,10,12,16,22,26,32-octaazapentacyclo[24.2.2.1˜3.7˜0.1˜9,13˜0.1˜14.18˜]tritriaconta-3(33), 4,6,9(32), 10,12,14(31), 15,17-nonaen-23-one]
2.5 μM Compound 34 with GDF-8 (25 ng/ml) and Wnt3a, no activin A
  SOX17 expression (% of control): 88 % of control
No AA (with Wnt3a), EGF
  Cell Number, % of positive control: 85.53%
  Cell Number, Average Total Cell Number: 6145
  Sox17 Expression, % of positive control: 19.18%
  Sox17 Expression, Average Total Intensity: 1.5E+07
[1]
  Cell Number, % of positive control: 83.90%
  Cell Number, Average Total Cell Number: 6028
  Sox17 Expression, % of positive control: 87.44%
  Sox17 Expression, Average Total Intensity: 7.0E+07
No AA (with Wnt3a), FGF4
  Cell Number, % of positive control: 74.09%
  Cell Number, Average Total Cell Number: 5323
  Sox17 Expression, % of positive control: 33.75%
  Sox17 Expression, Average Total Intensity: 2.7E+07
No AA (with Wnt3a), GDF8
  Cell Number, % of positive control: 88.44%
  Cell Number, Average Total Cell Number: 6354
  Sox17 Expression, % of positive control: 88.59%
  Sox17 Expression, Average Total Intensity: 7.1E+07
[2]
  Cell Number, % of positive control: 95.88%
  Cell Number, Average Total Cell Number: 6889
  Sox17 Expression, % of positive control: 72.59%
  Sox17 Expression, Average Total Intensity: 5.8E+07
[3]
  Cell Number, % of positive control: 77.74%
  Cell Number, Average Total Cell Number: 5585
  Sox17 Expression, % of positive control: 81.75%
  Sox17 Expression, Average Total Intensity: 6.6E+07
[4]
  Cell Number, % of positive control: 131.60%
  Cell Number, Average Total Cell Number: 9455
  Sox17 Expression, % of positive control: 119.24%
  Sox17 Expression, Average Total Intensity: 9.6E+07
[5]
  Cell Number, % of positive control: 84.67%
  Cell Number, Average Total Cell Number: 6083
  Sox17 Expression, % of positive control: 69.62%
  Sox17 Expression, Average Total Intensity: 5.6E+07
No AA (with Wnt3a), Muscimol
  Cell Number, % of positive control: 101.41%
  Cell Number, Average Total Cell Number: 7286
  Sox17 Expression, % of positive control: 38.38%
  Sox17 Expression, Average Total Intensity: 3.1E+07
No AA (with Wnt3a), PDGF-A
  Cell Number, % of positive control: 58.11%
  Cell Number, Average Total Cell Number: 4175
  Sox17 Expression, % of positive control: 13.43%
  Sox17 Expression, Average Total Intensity: 1.1E+07
No AA (with Wnt3a), PDGF-D
  Cell Number, % of positive control: 69.84%
  Cell Number, Average Total Cell Number: 5017
  Sox17 Expression, % of positive control: 18.76%
  Sox17 Expression, Average Total Intensity: 1.5E+07
[6]
  Cell Number, % of positive control: 48.57%
  Cell Number, Average Total Cell Number: 3490
  Sox17 Expression, % of positive control: 8.02%
  Sox17 Expression, Average Total Intensity: 6.5E+06
[7]
  Cell Number, % of positive control: 29.68%
  Cell Number, Average Total Cell Number: 2133
  Sox17 Expression, % of positive control: 3.32%
  Sox17 Expression, Average Total Intensity: 2.7E+06
[8]
  Cell Number, % of positive control: 70.01%
  Cell Number, Average Total Cell Number: 5030
  Sox17 Expression, % of positive control: 14.58%
  Sox17 Expression, Average Total Intensity: 1.2E+07
No AA (with Wnt3a), VEGF
  Cell Number, % of positive control: 65.60%
  Cell Number, Average Total Cell Number: 4713
  Sox17 Expression, % of positive control: 12.49%
  Sox17 Expression, Average Total Intensity: 1.0E+07
[9]
  Cell Number, % of positive control: 10.81%
  Cell Number, Average Total Cell Number: 776
  Sox17 Expression, % of positive control: 1.56%
  Sox17 Expression, Average Total Intensity: 1.3E+06
No AA (with Wnt3a), none
  Cell Number, % of positive control: 64.18%
  Cell Number, Average Total Cell Number: 4611
  Sox17 Expression, % of positive control: 17.21%
  Sox17 Expression, Average Total Intensity: 1.4E+07
[10]
  Cell Number, % of positive control: 66.21%
  Cell Number, Average Total Cell Number: 4757
  Sox17 Expression, % of positive control: 48.77%
  Sox17 Expression, Average Total Intensity: 3.9E+07

## GDF-8: growth factor GDF-8, also known as myostatin, member of the TGF-β family
GDF-8 25 ng/ml in any combination with Compound 34
  SOX17 expression: substantial increase in SOX17 expression
